From patent US20220040136A1, “TREATMENT OF VULVOVAGINAL DISORDERS” (University of Rochester, priority 2018, published 2022)

Experiments:
Assay type in all cases: cell-based
human vulvar fibroblasts [1] = assay: In vitro LPV model: SPM pre-treatment of patient vestibular/vulvar fibroblasts before inflammatory stimulation, IL-6 and PGE2 by ELISA/EIA; conditions: for IL-6 production / PGE2 production: pre-treated 18 h at 5 nM, again 30 min prior to activation, IL-1β 10 pg/ml 48 h, booster at 24 h; for IL-6 production: FIG. 23A; for PGE2 production: FIG. 23B; for prostaglandin E2 (PGE2) production / interleukin-6 (IL-6) production: pre-treated 10 hours with 5 nM SPM, vestibular and external vulvar fibroblasts; for prostaglandin E2 (PGE2) production: then IL-1β 10 pg/ml 48 hr, FIG. 5A; for interleukin-6 (IL-6) production: then bradykinin 100 nM 48 hr, FIG. 5B; for effect on proinflammatory mediators linked to pain, initial tests: pre-treatment strategy, human vulvar fibroblasts
Experimental: (§1) FIGS. 5A, 5B, 5C, and 5D are a set of diagrams showing that PGE2 and IL-6 production is reduced by SPMs. Patient vestibular or vulvar fibroblasts were pre-treated for 10 hours with Lipoxin A4 (LxA4), Resolvin D2 (RvD2), (7R)-Maresin 1 or epi(7S)-Maresin 1 at a 5 nM concentration, then activated with IL-1β (Panel A; 10 pg/ml) or bradykinin (Panel B; 100 nM) for 48 hr. Culture media were collected and analyzed for PGE2 (Panel A) or IL-6 (Panel B) content. Patient fibroblasts were also activated first with IL-1β for 30 min then treated with 5 nM (7R)-Maresin 1 or LXA4 for 18 hours, followed by a booster dose for 6 hr. Culture media were collected and analyzed for PGE2 (Panel C) or IL-6 (Panel D) content. Mean+/−SEM of n=3, ANOVA *p<0.05 vs. activation only (no SPM).
FIGS. 23A and 23B are diagrams showing six SPMs are effective in reducing IL-6 and PGE2 production from fibroblasts when used as a pre-treatment and post-treatment. Patient vestibular or vulvar fibroblasts were pre-treated for 18 h with Resolvin D3 (RvD3), Resolvin D4 (RvD4), Resolvin D5 (RvD5), Resolvin E1 (RvE1), Protectin D1 or Protectin DX at a 5 nM concentration, pre-treated again for 30 min prior to activation, then activated with 10 pg/ml IL-1β for 48 h with a booster SPM dose at 24 h. Culture media were collected and analyzed for IL-6 (Panel A) and PGE2 (Panel B). Mean+/−SEM of n=6 (two cases run in triplicate), ANOVA *p<0.05 vs. activation only (IL-1b).
(§2) In this example, a fibroblast-based in vitro LPV model was established. Briefly, fibroblast strains were obtained from two regions (FIG. 1) of the lower genital tract of localized provoked vulvodynia (LPV) cases and pain-free controls in the manner described in Falsetta et al. Am J Obstet Gynecol 2015, vol. 213, pp. 38 e1-12 and Foster et al., Pain 2015, vol. 156, pp. 386-96.
(§3) Over 30 paired fibroblast strains obtained from LPV-afflicted cases (fulfilling Friedrich's Criteria)^25 and age/race-matched (critical variables influencing LPV),^26, 27 pain-free controls were obtained. All subjects who contributed to the library were premenopausal, denied oral corticosteroids, non-steroidal, immunomodulatory, or anti-inflammatory medication use, and reported an absence of systemic/cutaneous inflammatory conditions at the time of sample collection. Mechanical pain thresholds were determined (via a method of limits) (0.5-5 N) using a Wagner algometer. Fibroblast identity was confirmed by microscopy and fibroblast markers (vimentin, collagen); only low passage (˜4) cells are used.
(§4) Synthesized, purified and commercially available SPMs from each known SPM class (E-series Resolvins, D-series Resolvins, Maresins, Protectins and Lipoxins) at low/nanomolar concentrations (1-100 nM) were tested. […] The inventors used one of two treatment regimens proven effective in vulvar fibroblasts and other cells: 1) overnight pre-treatment, followed by another treatment 30 min prior to stimulation with proinflammatory stimuli for 48 hr with a third dose of SPMs at 24 hr post-challenge, or 2) post-treatment with SPMs after a 30 min pre-treatment with inflammatory stimuli, followed by a booster dose 18 hr later. Both treatment regimens are of interest, as SPMs are active throughout the inflammatory process.^5-7 Even SPMs administered after LPV onset are likely to prevent the worsening or spread of LPV pain.
Next, SPMs from other classes (E series Resolvins and Protectins), as well as additional SPMs from classes containing members that are effective in reducing IL-6 and PGE2 production (e.g., Maresins) were investigated in similar screen. […] SPMs that were effective in reducing more than one proinflammatory mediator in at least 2 tests can be examined for further testing using a preclinical mouse model. […] These additional effective SPMs include Resolvin D3, Resolvin D4, Resolvin D5, Resolvin E1, Protectin D1, and Protectin DX. […]

human vulvar fibroblasts [2] = assay: In vitro LPV model: SPM post-treatment of already activated patient fibroblasts, IL-6 and PGE2; conditions: post-treatment: IL-1β 30 min; for IL-6 production / PGE2 production: then 5 nM 18 hours, booster dose 24 hr; for IL-6 production: FIG. 24A; for PGE2 production: FIG. 24B
Experimental: as §1
FIGS. 24A and 24B are diagrams showing that six SPMs are effective in reducing IL-6 and PGE2 production from fibroblasts when used as a post-treatment. Patient vestibular or vulvar fibroblasts were activated first with IL-1β for 30 min then treated with RvD3, RvD4, RvD5, RvE1, Protectin D1 or Protectin DX at a 5 nM concentration for 18 hours, followed by a booster SPM dose for 24 hr. Culture media were collected and analyzed for IL-6 (Panel A) and PGE2 (Panel B) content. Mean+/−SEM of n=6 (two cases run in triplicate), ANOVA *p<0.05 vs. activation only (IL-1b). […] The magnitude of reduction was not as great as pre-treatment, but equally significant as the reduction from pre-treatment regimens.
as §2, §3, §4

Mouse vulvar tissue = assay: Mouse vulvar explants (4 mm punch biopsy), IL-1β-stimulated PGE2 production; conditions: pre-treatment 18 hours, then IL-1β 10 pg/ml 18 hours; range of doses, as low as 1 nM; FIG. 6
Experimental: FIG. 6 is a diagram showing that SPMs inhibit PGE2 production from mouse vulvar tissue. Mouse vulvar tissue (4 mm punch biopsies) was collected and bisected then pre-treated in culture medium with either Maresin 1 or RvD2 at indicated concentrations for 18 hours, followed by an additional 18 hours stimulation with IL-1β (10 pg/ml). Culture medium was collected and analyzed for PGE2 content. Mean+/−SEM; n=3 replicate cultures. ANOVA * p<0.05 vs. vehicle.
Although SPM structure and therapeutic efficacy is conserved across species,^5-7 inventors first confirmed that mouse vulvar tissues responded to SPM treatment in vitro by culturing mouse vulvar explants (4 mm punch biopsy). The explants were stimulated with IL-1, and then assays were carried to assess the ability of Maresin 1 or RvD2 to reduce PGE2 production under the established pre-treatment regimen.

CC/C=C\C[C@H](O)/C=C/C=C\C=C\[C@@H](O)C/C=C\C/C=C\CCC(=O)O [Protectin DX]
IL-6 production (human vulvar fibroblasts [1]): showed efficacy | PGE2 production (human vulvar fibroblasts [1]): showed efficacy | IL-6 production (human vulvar fibroblasts [2]): showed efficacy | PGE2 production (human vulvar fibroblasts [2]): showed efficacy

CCCCC[C@H](O)/C=C/C=C\C=C\C=C\[C@@H](O)[C@@H](O)CCCC(=O)O [Lipoxin A4, 5S,6R,15S-trihydroxy-eicosa-7E,9E,11Z,13E-tetraenoic acid]
prostaglandin E2 (PGE2) production (human vulvar fibroblasts [1]): significantly reduced | interleukin-6 (IL-6) production (human vulvar fibroblasts [1]): significantly reduced | PGE2 levels (human vulvar fibroblasts [2]; then 5 nM SPM 18 hours, booster dose 6 hr, FIG. 5C): significantly reduced | IL-6 levels (human vulvar fibroblasts [2]; then 5 nM SPM 18 hours, booster dose 6 hr, FIG. 5D): significantly reduced

CC/C=C\C[C@H](O)/C=C/C=C\C[C@@H](O)/C=C/C=C/C=C\[C@@H](O)CCC(=O)O [Resolvin D3, 4S,11R,17S-trihydroxy-docosa-5Z,7E,9E,13Z,15E,19Z-hexaenoic acid]
IL-6 production (human vulvar fibroblasts [1]): showed efficacy | PGE2 production (human vulvar fibroblasts [1]): showed efficacy | IL-6 production (human vulvar fibroblasts [2]): showed efficacy | PGE2 production (human vulvar fibroblasts [2]): showed efficacy

CC/C=C\C[C@@H](O)/C=C/C=C\C=C\C=C\[C@@H](O)[C@@H](O)C/C=C\CCC(=O)O [AT-Resolvin D1, 7S,8R,17R-trihydroxy-docosa-4Z,9E,11E,13Z,15E,19Z-hexaenoic acid]
effect on proinflammatory mediators linked to pain, initial tests (human vulvar fibroblasts [1]): no striking effects

CC/C=C\C[C@H](O)\C=C/C=C/C=C/[C@H](O)C/C=C\C/C=C\CCC(=O)O [Protectin D1, 10R,17S-dihydroxy-docosa-4Z,7Z,11E,13E,15Z,19Z-hexaenoic acid]
IL-6 production (human vulvar fibroblasts [1]): showed efficacy | PGE2 production (human vulvar fibroblasts [1]): showed efficacy | IL-6 production (human vulvar fibroblasts [2]): showed efficacy | PGE2 production (human vulvar fibroblasts [2]): showed efficacy

CC/C=C\C[C@H](O)/C=C/C=C\C\C=C/C=C/C=C/[C@@H](O)[C@@H](O)CCC(=O)O [Resolvin D4, 4S,5,17S-trihydroxy-docosa-6E,8E,10Z,13Z,15E,19Z-hexaenoic acid]
IL-6 production (human vulvar fibroblasts [1]): showed efficacy | PGE2 production (human vulvar fibroblasts [1]): showed efficacy | IL-6 production (human vulvar fibroblasts [2]): showed efficacy | PGE2 production (human vulvar fibroblasts [2]): showed efficacy

CC/C=C\C[C@H](O)/C=C/C=C\C/C=C\C/C=C\C/C=C\CCC(=O)O [17(S)-HDHA, 17(S)-hydroxy docosahexaenoic acid]
effect on proinflammatory mediators linked to pain, initial tests (human vulvar fibroblasts [1]): no striking effects

CC/C=C\C[C@H](O)/C=C/C=C\C/C=C\C=C\[C@@H](O)C/C=C\CCC(=O)O [Resolvin D5]
IL-6 production (human vulvar fibroblasts [1]): showed efficacy | PGE2 production (human vulvar fibroblasts [1]): showed efficacy | IL-6 production (human vulvar fibroblasts [2]): showed efficacy | PGE2 production (human vulvar fibroblasts [2]): showed efficacy

CCCCC[C@H](O)[C@H](O)/C=C/C=C/C=C\C=C\[C@@H](O)CCCC(=O)O [Lipoxin B4]
effect on proinflammatory mediators linked to pain, initial tests (human vulvar fibroblasts [1]): no striking effects

CC/C=C\C[C@H](O)[C@H](O)/C=C/C=C/C=C\C=C\[C@@H](O)C/C=C\CCC(=O)O [Resolvin D2, 7S,16R,17S-trihydroxy-docosa-4Z,8E,10Z,12E,14E,19Z-hexaenoic acid]
prostaglandin E2 (PGE2) production (human vulvar fibroblasts [1]): significantly reduced | interleukin-6 (IL-6) production (human vulvar fibroblasts [1]): significantly reduced | PGE2 responses following IL-1β treatment (Mouse vulvar tissue): significantly suppressed

CC[C@@H](O)/C=C/C=C\C[C@@H](O)/C=C/C=C/C=C\[C@@H](O)CCCC(=O)O [Resolvin E1, 5S,12,18-trihydroxy-eicosa-6Z,8E,10E,14Z,16E-pentaenoic acid]
IL-6 production (human vulvar fibroblasts [1]): showed efficacy | PGE2 production (human vulvar fibroblasts [1]): showed efficacy | IL-6 production (human vulvar fibroblasts [2]): showed efficacy | PGE2 production (human vulvar fibroblasts [2]): showed efficacy

CC/C=C\C/C=C\C[C@H](O)\C=C/C=C/C=C/[C@@H](O)C/C=C\CCC(=O)O [epi-Maresin 1, 7S,14S-docosa-4Z,8E,10E,12Z,16Z,19Z-hexaenoic acid]
prostaglandin E2 (PGE2) production (human vulvar fibroblasts [1]): significantly reduced | interleukin-6 (IL-6) production (human vulvar fibroblasts [1]): significantly reduced

CC/C=C\C[C@H](O)/C=C/C=C\C=C\C=C\[C@@H](O)[C@@H](O)C/C=C\CCC(=O)O [Resolvin D1, 7S,8R,17S-trihydroxy-docosa-4Z,9E,11E,13Z,15E,19Z-hexaenoic acid]
effect on proinflammatory mediators linked to pain, initial tests (human vulvar fibroblasts [1]): no striking effects
